The text below walks through data of PubChem BioAssay AID1259407 (Chemical Carcinogenesis Research Information System (CCRIS), 2018).

Each structure is given as a SMILES string. Activity calls are given as the source filed them. The rule behind the calls is not given here.

This series concerns CCRIS mutagenicity, Ames/micronucleus/aberration tests. Nature of the series: CCRIS mutagenicity studies.
Where [1] appears, read: Test System: AMES SALMONELLA TYPHIMURIUM, Strain/Indicator: TA98, Metabolic Activation: S-9, Method: STANDARD PLATE.
Setting [2] is: Test System: AMES SALMONELLA TYPHIMURIUM, Strain/Indicator: TA100, Metabolic Activation: S-9, Method: STANDARD PLATE.
Where [3] appears, read: Test System: AMES SALMONELLA TYPHIMURIUM, Strain/Indicator: TA98, Metabolic Activation: NONE, Method: STANDARD PLATE.
Setting [4] is: Test System: AMES SALMONELLA TYPHIMURIUM, Strain/Indicator: TA100, Metabolic Activation: NONE, Method: STANDARD PLATE.
Setting [5] is: Test System: AMES SALMONELLA TYPHIMURIUM, Strain/Indicator: TA1535, Metabolic Activation: NONE, Method: STANDARD PLATE.

As for `O=C(O)C(Cl)CCl` (centres undefined), the mutagenic call is, setting by setting: (Test System: AMES SALMONELLA TYPHIMURIUM, Strain/Indicator: TA102, Metabolic Activation: NONE, Method: STANDARD PLATE) “inactive; negative”; (Test System: AMES SALMONELLA TYPHIMURIUM, Strain/Indicator: TA2638, Metabolic Activation: NONE, Method: STANDARD PLATE) “inactive; negative”; (Test System: E. COLI, Strain/Indicator: WP2 (PKM101), Metabolic Activation: NONE, Method: STANDARD PLATE) “inactive; negative”; (Test System: E. COLI, Strain/Indicator: WP2 UVRA (PKM101), Metabolic Activation: NONE, Method: STANDARD PLATE) “inactive; negative”.

With `COc1ccc2c(c1OC)c(=O)n(C)c1c3cc4c(cc3ccc21)OCO4`, where the note is “Test System: AMES SALMONELLA TYPHIMURIUM, Strain/Indicator: TA100, Metabolic Activation: RAT, LIVER, S-9, PHENOBARBITAL AND BETA-NAPHTHOFLAVONE, Method: PREINCUBATION”, the mutagenic call was “active; positive”.

With `CCCCN=NC(C)(C)OO`, the mutagenic call is “active; positive” (Test System: AMES SALMONELLA TYPHIMURIUM, Strain/Indicator: TA1535, Metabolic Activation: NONE) and “active; positive” (Test System: E. COLI, Strain/Indicator: WP2 (HCR-), Metabolic Activation: NONE).

On to `Oc1ccc(Cl)cc1Cl`, for which the mutagenic call by setting is: (End Point: IN VITRO CHROMOSOMAL ABERRATIONS, Test System: CHO CELLS, Metabolic Activation: RAT, LIVER, S-9, AROCLOR 1254) “inactive; negative”; (End Point: IN VITRO CHROMOSOMAL ABERRATIONS, Test System: CHO CELLS, Metabolic Activation: RAT, LIVER, S-9, PHENOBARBITAL AND BETA-NAPHTHOFLAVONE) “active; positive”; (End Point: IN VITRO CHROMOSOMAL ABERRATIONS, Test System: TK6 HUMAN LYMPHOBLASTS, Metabolic Activation: NONE) “inactive; negative; authors reported the results as equivocal”; (Test System: AMES SALMONELLA TYPHIMURIUM, Strain/Indicator: TA98, Metabolic Activation: HAMSTER, LIVER, S-9, AROCLOR 1254, Method: PREINCUBATION) “inactive; negative”; (Test System: AMES SALMONELLA TYPHIMURIUM, Strain/Indicator: TA98, Metabolic Activation: NONE, Method: PREINCUBATION) “inactive; negative”; (Test System: AMES SALMONELLA TYPHIMURIUM, Strain/Indicator: TA98, Metabolic Activation: RAT, LIVER, S-9, AROCLOR 1254, Method: PREINCUBATION) “inactive; negative”. The mutagenic call reads like this: under setting [1], “inactive; negative”; (Test System: AMES SALMONELLA TYPHIMURIUM, Strain/Indicator: TA100, Metabolic Activation: HAMSTER, LIVER, S-9, AROCLOR 1254, Method: PREINCUBATION) “inactive; negative”; (Test System: AMES SALMONELLA TYPHIMURIUM, Strain/Indicator: TA100, Metabolic Activation: NONE, Method: PREINCUBATION) “inactive; negative”; (Test System: AMES SALMONELLA TYPHIMURIUM, Strain/Indicator: TA100, Metabolic Activation: RAT, LIVER, S-9, AROCLOR 1254, Method: PREINCUBATION) “inactive; negative”; under setting [2], “inactive; negative”; (Test System: AMES SALMONELLA TYPHIMURIUM, Strain/Indicator: TA1535, Metabolic Activation: NONE, Method: PREINCUBATION) “inactive; negative”. Besides, the mutagenic call (Test System: AMES SALMONELLA TYPHIMURIUM, Strain/Indicator: TA1535, Metabolic Activation: RAT, LIVER, S-9, AROCLOR 1254, Method: PREINCUBATION) was “inactive; negative”; the mutagenic call (Test System: AMES SALMONELLA TYPHIMURIUM, Strain/Indicator: TA1537, Metabolic Activation: HAMSTER, LIVER, S-9, AROCLOR 1254, Method: PREINCUBATION) is “inactive; negative”; the mutagenic call (Test System: AMES SALMONELLA TYPHIMURIUM, Strain/Indicator: TA1537, Metabolic Activation: NONE, Method: PREINCUBATION) is “inactive; negative”; the mutagenic call (Test System: AMES SALMONELLA TYPHIMURIUM, Strain/Indicator: TA1537, Metabolic Activation: RAT, LIVER, S-9, AROCLOR 1254, Method: PREINCUBATION) was “inactive; negative”; the mutagenic call (Test System: AMES SALMONELLA TYPHIMURIUM, Strain/Indicator: YG1021, Metabolic Activation: S-9, Method: STANDARD PLATE) was “inactive; negative”; the mutagenic call (Test System: AMES SALMONELLA TYPHIMURIUM, Strain/Indicator: YG1024, Metabolic Activation: S-9, Method: STANDARD PLATE) was “inactive; negative”. Besides, the mutagenic call runs as follows: (Test System: AMES SALMONELLA TYPHIMURIUM, Strain/Indicator: YG1026, Metabolic Activation: S-9, Method: STANDARD PLATE) “inactive; negative”; (Test System: AMES SALMONELLA TYPHIMURIUM, Strain/Indicator: YG1029, Metabolic Activation: S-9, Method: STANDARD PLATE) “inactive; negative”; (Test System: CHINESE HAMSTER V-79, Strain/Indicator: V-79/6-THIOGUANINE, Metabolic Activation: NONE, Method: STANDARD PLATE) “inactive; negative”; (Test System: MOUSE LYMPHOMA, Strain/Indicator: L5178Y (TK+/TK-), Metabolic Activation: NONE, Method: SUSPENSION/PLATE) “active; positive”.

With `ONc1ccc2ccccc2c1`, the mutagenic call is “active; positive” under setting [3]; “active; positive” under setting [1]; “active; positive” under setting [4]; “active; positive” under setting [2]; “active; positive” under setting [5]; “active; positive” (Test System: AMES SALMONELLA TYPHIMURIUM, Strain/Indicator: TA1538, Metabolic Activation: NONE, Method: STANDARD PLATE).

Turning to `CC(C)=CC1C(C(=O)OCc2cccc(Oc3ccccc3)c2)C1(C)C` (centres undefined), the mutagenic call (Test System: AMES SALMONELLA TYPHIMURIUM, Strain/Indicator: TA98) is “inactive; negative”; the mutagenic call (Test System: AMES SALMONELLA TYPHIMURIUM, Strain/Indicator: TA98, Metabolic Activation: NONE) is “inactive; negative”; the mutagenic call under setting [3] was “inactive; negative”; the mutagenic call (Test System: AMES SALMONELLA TYPHIMURIUM, Strain/Indicator: TA98, Metabolic Activation: RAT, LIVER, S-9, AROCLOR 1254, Method: STANDARD PLATE) is “inactive; negative”; the mutagenic call (Test System: AMES SALMONELLA TYPHIMURIUM, Strain/Indicator: TA100) is “active; positive”; the mutagenic call (Test System: AMES SALMONELLA TYPHIMURIUM, Strain/Indicator: TA100, Metabolic Activation: NONE) was “active; positive”. The mutagenic call runs as follows: under setting [4], “inactive; negative”; (Test System: AMES SALMONELLA TYPHIMURIUM, Strain/Indicator: TA100, Metabolic Activation: RAT, LIVER, S-9, AROCLOR 1254, Method: STANDARD PLATE) “inactive; negative”; under setting [5], “inactive; negative”; (Test System: AMES SALMONELLA TYPHIMURIUM, Strain/Indicator: TA1535, Metabolic Activation: RAT, LIVER, S-9, AROCLOR 1254, Method: STANDARD PLATE) “inactive; negative”; (Test System: AMES SALMONELLA TYPHIMURIUM, Strain/Indicator: TA1537, Metabolic Activation: NONE, Method: STANDARD PLATE) “inactive; negative”; (Test System: AMES SALMONELLA TYPHIMURIUM, Strain/Indicator: TA1537, Metabolic Activation: RAT, LIVER, S-9, AROCLOR 1254, Method: STANDARD PLATE) “inactive; negative”. Further, the mutagenic call is, setting by setting: (Test System: E. COLI, Strain/Indicator: WP2, Metabolic Activation: NONE, Method: STANDARD PLATE) “inactive; negative”; (Test System: E. COLI, Strain/Indicator: WP2, Metabolic Activation: RAT, LIVER, S-9, AROCLOR 1254, Method: STANDARD PLATE) “inactive; negative”.
